Values quoted from earlier work, collected in patent publication US20240424053A1, “METHODS AND COMPOSITIONS FOR PROVIDING MYOCARDIAL PROTECTION AND TREATING MYOCARDIAL STRESS AND FIBROSIS” (Tufts Medical Center, Inc., priority 2021, published 2024).

Target: T1, Xa (Homo sapiens, UniProt P00742)
T1 construct: host or cells: HF patients
Details: in vivo; cited from earlier work

T1 sequence (P00742 235-488 limits assumed): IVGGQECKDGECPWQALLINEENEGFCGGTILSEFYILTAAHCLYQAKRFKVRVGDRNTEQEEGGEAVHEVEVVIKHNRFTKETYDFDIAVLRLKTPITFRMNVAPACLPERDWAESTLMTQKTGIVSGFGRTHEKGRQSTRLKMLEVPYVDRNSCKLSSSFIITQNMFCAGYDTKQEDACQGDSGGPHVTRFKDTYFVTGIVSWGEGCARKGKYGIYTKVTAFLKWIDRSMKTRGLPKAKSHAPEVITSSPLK
T1 sequence (P00742 41-179 partner limits assumed): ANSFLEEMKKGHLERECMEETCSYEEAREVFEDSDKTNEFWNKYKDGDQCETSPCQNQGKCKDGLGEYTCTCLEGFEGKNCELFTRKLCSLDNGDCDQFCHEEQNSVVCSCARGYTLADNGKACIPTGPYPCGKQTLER

In the case of `O=C(NC[C@H]1CN(c2ccc(N3CCOCC3=O)cc2)C(=O)O1)c1ccc(Cl)s1` [rivaroxaban], the “clinical benefit in HF patients” value is given as “no clear benefit”.
